What was measured:
SA surface [1] = target: T1, SA surface (Streptomyces avidinii, UniProt P22629); assay: Biotin binding to SA surface in FBS, with and without trehalose blocking; conditions: for shift from biotin binding to SA surface: SA shift 5.8 nm
Protocol: In order to test the affect of trehalose on specific protein-protein interactions, the ability of trehalose to interfere with the ability of biotin to bind to a SA surface was measured. Biotin in either 10% or 100% FBS was allowed to react with the SA surface with the 5.8 nm PWV shift, and the resulting shift measured (see Table 8). The theoretical shift resulting from Biotin binding, shown in parenthesis, was calculated from the following formula: (Mol. Wt. of Biotin/Mol. Wt. of SA)×# of binding sites on SA for biotin×SA shift, or (244/55000)×4 (binding sites)×5.8 nm (SA shift).

Carbonic Anhydrase (CA) = assay: CBS binding to carbonic anhydrase after blocking with 5% trehalose (PWV shift); conditions: 5% trehalose block
Protocol: FIG. 5 represents the normalized peak wavelength value (PWV) resulting from CBS binding to carbonic anhydrase after blocking with 5% trehalose.
The CA surface was blocked with 5% trehalose. Trehalose blocking of non-specific interactions of CBS to the surface enabled detection of specific binding to CA below 1 μM.

[2] = Sugars binding to amine surfaces (PWV change); conditions: for PWV change after over night incubation and wash: stored overnight in water
Protocol: Lactose and glyceraldehyde solutions in water at 5% and 2.5% respectively were added to a BIND™ sensor plate functionalized with amine functional groups for 2 hrs. The plate was then washed thoroughly with water and stored overnight in water. The plates were then washed again with water and the binding of sugars was measured.

[3] = Blocking of streptavidin (SA) surface with 5% trehalose (blocker PWV shift); assay type: binding; conditions: 2 hrs
Protocol: (§1) 40 μl of 5% Trehalose solution was added to SA immobilized wells (0.05 mg/ml SA and 0.2 mg/ml SA) and control wells (Trehalose alone) and were allowed to bind for 2 hrs. The plates were washed and the peak wavelength value (PWV) shift was measured (See Table 6 and FIG. 2). The SA shift was the PWV of SA binding to the aldehyde surface, while the blocker shift was the PWV shift obtained after the blocker was allowed to bind to the unreacted aldehyde functional groups on the SA-immobilized aldehyde surface. The unreacted aldehydes are more easily accessed by the small blocker molecule than the bigger SA molecules. The blocker shift is lower with higher SA concentration likely because there are less aldehydes available for binding the blocker in these wells.

SA surface [4] = target: T1, SA surface; assay: Trehalose efficacy to reduce non-specific FBS binding to the SA surface; conditions: for FBS 10% binding to SA surface (shift normalized to trehalose shift) / FBS 100% binding to SA surface (shift normalized to trehalose shift): blocked with 5% Trehalose
Protocol: In order to test the efficacy of trehalose to reduce non-specific binding, the ability of trehalose to reduce Fetal Bovine Serum (FBS) binding to the SA surface was measured. 10% and 100% commercially available FBS was allowed to react with either the SA surface with the 2 nm PWV shift or the 5.8 nm PWV shift, and the resulting shift measured (see Table 7 and FIG. 3). The shifts were normalized to the trehalose shift by considering the resulting signal after the surface has been blocked to be zero, or baseline. The change in binding due to the protein present in FBS is then measured and reported as non-specific binding.

[5] = SA binding to the aldehyde surface (PWV shift)
Protocol: as §1

T1 sequence (P22629 25-183): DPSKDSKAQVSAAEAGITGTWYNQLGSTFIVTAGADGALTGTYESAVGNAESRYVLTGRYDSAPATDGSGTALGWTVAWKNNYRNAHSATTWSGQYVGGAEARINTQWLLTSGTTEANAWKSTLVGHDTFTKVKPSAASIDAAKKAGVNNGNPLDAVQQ

Compound: O=C(O)CCCC[C@@H]1SC[C@@H]2NC(=O)N[C@@H]21 [Biotin]
- theoretical shift resulting from Biotin binding (in parenthesis) (SA surface [1]; (244/55000) x 4 binding sites x 5.8 nm SA shift): 0.104 nm
- shift from biotin binding to SA surface (SA surface [1]; biotin in FBS 10%, 5% Trehalose): 0.09 nm
- shift from biotin binding to SA surface (SA surface [1]; biotin in FBS 10%, No Trehalose): 0.08 nm
- shift from biotin binding to SA surface (SA surface [1]; biotin in FBS 100%, 5% Trehalose): 0.1 nm
- shift from biotin binding to SA surface (SA surface [1]; biotin in FBS 100%, No Trehalose): 0.12 nm

Compound: NS(=O)(=O)C(=O)O [CBS, Carboxysulfonamide]
- PWV shift of CBS binding to CA (Carbonic Anhydrase (CA); CBS 0.05 μM): 0.000 nm
- PWV shift of CBS binding to CA (Carbonic Anhydrase (CA); CBS 0.10 μM): 0.001 nm
- PWV shift of CBS binding to CA (Carbonic Anhydrase (CA); CBS 0.20 μM): 0.003 nm
- PWV shift of CBS binding to CA (Carbonic Anhydrase (CA); CBS 0.39 μM): 0.005 nm
- PWV shift of CBS binding to CA (Carbonic Anhydrase (CA); CBS 0.78 μM): 0.010 nm
- PWV shift of CBS binding to CA (Carbonic Anhydrase (CA); CBS 1.56 μM): 0.020 nm
- PWV shift of CBS binding to CA (Carbonic Anhydrase (CA); CBS 3.13 μM): 0.037 nm
- PWV shift of CBS binding to CA (Carbonic Anhydrase (CA); CBS 6.25 μM): 0.045 nm
- PWV shift of CBS binding to CA (Carbonic Anhydrase (CA); CBS 12.50 μM): 0.054 nm
- PWV shift of CBS binding to CA (Carbonic Anhydrase (CA); CBS 25.00 μM): 0.054 nm
- PWV shift of CBS binding to CA (Carbonic Anhydrase (CA); CBS 50.00 μM): 0.062 nm

Compound: O=CC(O)CO (stereo not shown) [Glyceraldehydes, glyceraldehyde]
- PWV change after 2 hr incubation and wash ([2]; 2.5% solution in water): 1.75 nm
- PWV change after over night incubation and wash ([2]; 2.5% solution in water): 1.72 nm

Compound: OC[C@H]1O[C@@H](O[C@H]2[C@H](O)[C@@H](O)C(O)O[C@@H]2CO)[C@H](O)[C@@H](O)[C@H]1O (stereo partly shown) [Lactose]
- PWV change after 2 hr incubation and wash ([2]; 5% solution in water): 4.86 nm
- PWV change after over night incubation and wash ([2]; 5% solution in water): 4.82 nm

Compound: OC[C@H]1O[C@H](O[C@H]2O[C@H](CO)[C@@H](O)[C@H](O)[C@H]2O)[C@H](O)[C@@H](O)[C@@H]1O [Trehalose]
- Blocker shift 5% Trehalose ([3]; aldehyde surface (no streptavidin)): 2.91 nm
- Blocker shift 5% Trehalose ([3]; wells immobilized with 0.05 mg/mL SA): 2.96 nm
- Blocker shift 5% Trehalose ([3]; wells immobilized with 0.2 mg/mL SA): 2.19 nm
- effect on non-specific binding of proteins from FBS to the SA surface (SA surface [4]): reduced the non-specific binding of proteins from FBS to the SA surface
- FBS 10% binding to SA surface (shift normalized to trehalose shift) (SA surface [4]; SA shift 2 nm surface): 2.41 nm
- FBS 100% binding to SA surface (shift normalized to trehalose shift) (SA surface [4]; SA shift 2 nm surface): 1.27 nm
- FBS 10% binding to SA surface (shift normalized to trehalose shift) (SA surface [4]; SA shift 5.8 nm surface): 0.62 nm
- FBS 100% binding to SA surface (shift normalized to trehalose shift) (SA surface [4]; SA shift 5.8 nm surface): 0.07 nm
- interference with biotin binding to SA (SA surface [1]): does not seem to interfere with biotin binding

Compound: streptavidin [SA]
- SA shift ([5]; 0.05 mg/mL SA during immobilization): 2.00 Nm
- SA shift ([5]; 0.2 mg/mL SA during immobilization): 5.81 Nm
